# Key:
# [1] = room temperature at pH 2-3
# [2] = system: Peptococcus species; assay: in vitro activity against anaerobic bacteria: Peptococcus species; type: cell-based
# Excerpt: (§1) Kijanimicin is also active against strains of anaerobic bacteria other than P. acnes. For example, when tested in vitro, the antibiotic was active against strains of Peptococcus species, Peptostreptococcus and E. lentum.
# [3] = system: Plasmodium berghei; assay: antimalarial activity in infected CF1 mice; type: in vivo, Plasmodium berghei; CF1 mice; conditions: therapy commenced one day after infection
# [4] = system: Peptostreptococcus; assay: in vitro activity against anaerobic bacteria: Peptostreptococcus; type: cell-based
# Excerpt: as §1
# [5] = system: P-388 leukemia; assay: in vivo anti-tumor test, P-388 leukemia in mice (standard National Cancer Institute test)
# Method: Anti-tumor activity was determined by the standard National Cancer Institute test which was published in Cancer Chemothr. Rep. 3:1-103 1972.
# In the test 10^6 cells per mouse of P-388 leukemia (bleomycin sensitive) is administered intraperitoneally on day 1. The test compound is serially diluted (1/10, 1/100, etc.) and each dilution is administered to a mouse from day 1 to day 9. Animals dying on or before day 5 are listed as toxic deaths. Controls are run using bleomycin and olivomycin A. The results are calculated by the formula in which MST=medium survival time in days;
# MST ^T /C=MST-T/MST-Control×100.
# [6] = anti-inflammatory activity, art recognized test procedures
# [7] = system: E. lentum; assay: in vitro activity against anaerobic bacteria: E. lentum; type: cell-based
# Excerpt: as §1
# [8] = acute toxicity (LD50) and therapeutic index; type: in vivo
compound,measurement,setting,value
COC(=O)N[C@H]1[C@@H](C)O[C@@H](O[C@H]2C/C=C(\C)[C@@H]3C=C[C@@H]4[C@@H](O[C@H]5C[C@@H](O[C@H]6CC(O[C@H]7C[C@H](O)[C@@H](O)[C@H](C)O7)C(O[C@@H]7C[C@@H](O)[C@@H](OC)[C@H](C)O7)[C@H](C)O6)[C@@H](O)[C@H](C)O5)[C@@H](C)C[C@H](C)[C@H]4[C@]3(C)/C(O)=C3\C(=O)O[C@]4(C[C@@H](C)C(CO)=C[C@H]4/C=C/2C)C3=O)C[C@]1(C)[N+](=O)[O-] (some centres unmarked) [Kijanimicin],loss of activity,[1],loses activity rapidly
same,in vitro activity against Peptococcus species,[2],active
same,"antiparasitic activity, Plasmodium berghei",[3],exhibits antiparasitic activity
same,in vitro activity against Peptostreptococcus,[4],active
same,anti-tumor activity against P-388 leukemia,[5],exhibits anti-tumor activity
same,anti-inflammatory effect,[6],exhibits an anti-inflammatory effect
same,in vitro activity against E. lentum,[7],active
same,oral LD50,[8]; oral,greater than 1000 mg/kg
same,"therapeutic index (LD50 / PD50), oral",[8]; oral,about 10
same,subcutaneous LD50,[8]; subcutaneous,greater than 1000 mg/kg
same,"therapeutic index (LD50 / PD50), subcutaneous",[8]; subcutaneous,about 10
